This is an account of results in ChEMBL document CHEMBL4000183, “Phenylpropanoids from Juglans mandshurica exhibit cytotoxicities on liver cancer cell lines through apoptosis induction” (Bioorg Med Chem Lett, 2017).

Activity calls are given as the source filed them. The calls are words filed in the database; no cut-off is given here.

The subject of experiment [1] is HepG2. The experiment in a line: Cytotoxic activity against human HepG2 cells assessed as growth inhibition after 48 hrs by MTT assay. In kind it is functional, cell-based. Conditions: for IC50: Homo sapiens, HepG2, 48 h.
The test system of experiment [2] is Hep 3B2. The experiment in a line: Cytotoxic activity against human Hep3B cells assessed as growth inhibition after 48 hrs by MTT assay. The experiment is classed as functional, cell-based. The following applies: for IC50: Homo sapiens, Hep3B, 48 h. On the technique in general: Tetrazolium assays rely on reduction of a dye to a coloured formazan, in cell work by metabolically active cells.

The test system of experiment [3] is HepG2. Put plainly: Cytotoxic activity against human HepG2 cells assessed as growth inhibition at 100 uM after 48 hrs by MTT assay. In kind it is functional. Conditions: HepG2, 48 h, read-out: GI.
In experiment [4] the test system is HepG2. Put plainly: Cytotoxic activity against human HepG2 cells assessed as growth inhibition at 25 uM after 48 hrs by MTT assay. The experiment is classed as functional. Conditions: HepG2, 48 h, read-out: GI.
The subject of experiment [5] is Hep 3B2. Put plainly: Cytotoxic activity against human Hep3B cells assessed as growth inhibition at 25 uM after 48 hrs by MTT assay. The experiment is classed as functional. Conditions: read-out: GI.
The subject of experiment [6] is HepG2. Put plainly: Cytotoxic activity against human HepG2 cells assessed as growth inhibition at 50 uM after 48 hrs by MTT assay. In kind it is functional. The following applies: HepG2, 48 h, read-out: GI.
Experiment [7] concerns Hep 3B2. Put plainly: Cytotoxic activity against human Hep3B cells assessed as growth inhibition at 100 uM after 48 hrs by MTT assay. The experiment is classed as functional. Conditions: read-out: GI.
Experiment [8] has as its system HepG2. Put plainly: Cytotoxic activity against human HepG2 cells assessed as growth inhibition at 12.5 uM after 48 hrs by MTT assay. The experiment is classed as functional. Conditions: HepG2, 48 h, read-out: GI.
Experiment [9] concerns Hep 3B2. The experiment in a line: Cytotoxic activity against human Hep3B cells assessed as growth inhibition at 50 uM after 48 hrs by MTT assay. In kind it is functional. The following applies: read-out: GI.
Experiment [10] deals with Hep 3B2. The experiment in a line: Cytotoxic activity against human Hep3B cells assessed as growth inhibition at 6.25 uM after 48 hrs by MTT assay. The experiment is classed as functional. Conditions: read-out: GI.
Experiment [11] has as its system HepG2. Put plainly: Cytotoxic activity against human HepG2 cells assessed as growth inhibition at 6.25 uM after 48 hrs by MTT assay. The experiment is classed as functional. The following applies: HepG2, 48 h, read-out: GI.
The subject of experiment [12] is Hep 3B2. Put plainly: Cytotoxic activity against human Hep3B cells assessed as growth inhibition at 12.5 uM after 48 hrs by MTT assay. Conditions: read-out: GI. The experiment is classed as functional.
Experiment [13] relates to HepG2. The experiment in a line: Induction of apoptosis in human HepG2 cells assessed as chromatin condensation at 60 uM after 48 hrs by AO staining-based phase contrast microscopic analysis. The experiment is classed as functional, cell-based.
Experiment [14] concerns HepG2. Put plainly: Induction of apoptosis in human HepG2 cells assessed as increase in cleaved PARP level at 60 uM after 48 hrs by Western blot analysis. The experiment is classed as functional, cell-based. On the technique in general: In western blotting, separated proteins are transferred to a membrane and probed.
Experiment [15] deals with Hep 3B2. The experiment in a line: Induction of apoptosis in human Hep3B cells assessed as decrease in pro-caspase 9 level at 70 uM after 48 hrs by Western blot analysis. The experiment is classed as functional, cell-based.
Experiment [16] deals with Hep 3B2. Put plainly: Induction of apoptosis in human Hep3B cells assessed as nuclear fragmentation at 70 uM after 48 hrs by AO staining-based phase contrast microscopic analysis. The experiment is classed as functional, cell-based.
In experiment [17] the test system is Hep 3B2. Put plainly: Induction of apoptosis in human Hep3B cells assessed as decrease in PARP level at 70 uM after 48 hrs by Western blot analysis. In kind it is functional, cell-based.
In experiment [18] the test system is HepG2. Put plainly: Induction of apoptosis in human HepG2 cells assessed as increase in cleaved-caspase 9 level at 60 uM after 48 hrs by Western blot analysis. In kind it is functional, cell-based.
Experiment [19] has as its system HepG2. Put plainly: Induction of apoptosis in human HepG2 cells assessed as decrease in pro-caspase 9 level at 60 uM after 48 hrs by Western blot analysis. In kind it is functional, cell-based.
In experiment [20] the test system is Hep 3B2. Put plainly: Induction of apoptosis in human Hep3B cells assessed as cell shrinkage at 70 uM after 48 hrs by AO staining-based phase contrast microscopic analysis. The experiment is classed as functional.
Experiment [21] concerns HepG2. The experiment in a line: Induction of apoptosis in human HepG2 cells assessed as increase in cleaved-caspase 7 level at 60 uM after 48 hrs by Western blot analysis. The experiment is classed as functional, cell-based.
Experiment [22] concerns Hep 3B2. The experiment in a line: Induction of apoptosis in human Hep3B cells assessed as increase in cleaved-caspase 7 level at 70 uM after 48 hrs by Western blot analysis. The experiment is classed as functional, cell-based.
The test system of experiment [23] is HepG2. The experiment in a line: Induction of apoptosis in human HepG2 cells assessed as increase in Bax level at 60 uM after 48 hrs by Western blot analysis. In kind it is functional, cell-based.
The test system of experiment [24] is HepG2. The experiment in a line: Induction of apoptosis in human HepG2 cells assessed as decrease in Bcl-2 level at 60 uM after 48 hrs by Western blot analysis. The experiment is classed as functional, cell-based.
For experiment [25], the system named is HepG2. Put plainly: Induction of apoptosis in human HepG2 cells assessed as formation of apoptotic bodies at 60 uM after 48 hrs by AO staining-based phase contrast microscopic analysis. The experiment is classed as functional, cell-based.
Experiment [26] has as its system HepG2. The experiment in a line: Induction of apoptosis in human HepG2 cells assessed as decrease in pro-caspase 7 level at 60 uM after 48 hrs by Western blot analysis. The experiment is classed as functional, cell-based.
Experiment [27] deals with Hep 3B2. The experiment in a line: Induction of apoptosis in human Hep3B cells assessed as increase in cleaved-caspase 9 level at 70 uM after 48 hrs by Western blot analysis. The experiment is classed as functional, cell-based.
Experiment [28] relates to Hep 3B2. The experiment in a line: Induction of apoptosis in human Hep3B cells assessed as decrease in pro-caspase 7 level at 70 uM after 48 hrs by Western blot analysis. The experiment is classed as functional, cell-based.
Experiment [29] relates to Hep 3B2. Put plainly: Induction of apoptosis in human Hep3B cells assessed as increase in cleaved PARP level at 70 uM after 48 hrs by Western blot analysis. The experiment is classed as functional, cell-based.
For experiment [30], the system named is HepG2. The experiment in a line: Induction of apoptosis in human HepG2 cells assessed as nuclear fragmentation at 60 uM after 48 hrs by AO staining-based phase contrast microscopic analysis. In kind it is functional, cell-based.
Experiment [31] relates to Hep 3B2. The experiment in a line: Induction of apoptosis in human Hep3B cells assessed as chromatin condensation at 70 uM after 48 hrs by AO staining-based phase contrast microscopic analysis. In kind it is functional, cell-based.
The subject of experiment [32] is HepG2. Put plainly: Induction of apoptosis in human HepG2 cells assessed as decrease in PARP level at 60 uM after 48 hrs by Western blot analysis. The experiment is classed as functional, cell-based.
Experiment [33] deals with Hep 3B2. Put plainly: Induction of apoptosis in human Hep3B cells assessed as decrease in Bcl-2 level at 70 uM after 48 hrs by Western blot analysis. In kind it is functional, cell-based.
Experiment [34] has as its system Hep 3B2. The experiment in a line: Induction of apoptosis in human Hep3B cells assessed as increase in Bax level at 70 uM after 48 hrs by Western blot analysis. The experiment is classed as functional, cell-based.

With `COC(=O)c1ccc(OCCC(C)CO)cc1` (stereo unspecified), the “growth inhibition (GI)” value is -11.27% with HepG2 [1] and 19.85% in the experiment on Hep 3B2 [2].
As usually defined, the IC50 is the midpoint of a concentration-inhibition curve. For `O=c1[nH]cc(F)c(=O)[nH]1` [FLUOROURACIL], the inhibition of growth at 100 µM in the experiment on HepG2 [3] amounted to 51.2%; with Hep 3B2 [7], 57%. Moreover, the inhibition of growth at 25 µM turned out to be 39.2% with HepG2 [4] and 51.7% with Hep 3B2 [5]. Besides, the figures for the inhibition of growth at 50 µM with HepG2 [6] and in the experiment on Hep 3B2 [9] were 47.3% and 54.5%, respectively. The inhibition of growth at 12.5 µM in the experiment on HepG2 [8] is 32.9%; with Hep 3B2 [12] it was 50.6%. The inhibition of growth at 6.25 µM in the experiment on Hep 3B2 [10] was found to be 48.9%; in the experiment on HepG2 [11], 19.3%. Moreover, the results for the “growth inhibition (GI)” value in the experiment with HepG2 [1] and in the experiment on Hep 3B2 [2] were 51.78% and 56.74%, respectively. For the same molecule, the IC50 with HepG2 [1] fell in the range of 32.6 to 49.7 µM; in the experiment on Hep 3B2 [2] it was 10.5 to 11.9 µM.
For `COC(=O)/C=C/c1ccc(OCCC(C)CO)cc1` (stereo unspecified), the “growth inhibition (GI)” value is reported as 39.48% in the experiment with HepG2 [1] and 14.7% in the experiment with Hep 3B2 [2].
For `CC(CO)CCOc1ccc(/C=C/CO)cc1` (stereo unspecified), in that order: 9.26% and 7.75%.
Consider `CC(CO)CCOc1ccc(/C=C/C=O)cc1` (stereo unspecified), for which the outcome with HepG2 [13], in the experiment with HepG2 [14], in the experiment with Hep 3B2 [15], in the experiment on Hep 3B2 [16], in the experiment on Hep 3B2 [17] and with HepG2 [18] was Active. The outcome in the experiment on HepG2 [19], with Hep 3B2 [20], in the experiment with HepG2 [21], with Hep 3B2 [22], in the experiment on HepG2 [23] and with HepG2 [24] was Active. In addition, the result with HepG2 [25], in the experiment with HepG2 [26], in the experiment on Hep 3B2 [27], with Hep 3B2 [28], with Hep 3B2 [29] and in the experiment with HepG2 [30] was Active. Moreover, the result with Hep 3B2 [31], with HepG2 [32], with Hep 3B2 [33] and with Hep 3B2 [34] was Active. Also, the inhibition of growth at 100 µM is 80% in the experiment with HepG2 [3] and 85.8% in the experiment with Hep 3B2 [7]. Besides, the results for the inhibition of growth at 25 µM with HepG2 [4] and with Hep 3B2 [5] were 14.1% and 0.48%, respectively. For the same molecule, the inhibition of growth at 50 µM in the experiment with HepG2 [6] is 57%; in the experiment with Hep 3B2 [9], 28.9%. Further, the inhibition of growth at 12.5 µM with HepG2 [8] was 0.24%; in the experiment with Hep 3B2 [12], -2.42%. The inhibition of growth at 6.25 µM with Hep 3B2 [10] is -4.07%; in the experiment with HepG2 [11] it was 6.6%. In addition, the “growth inhibition (GI)” value in the experiment with HepG2 [1] came to 83.9%; in the experiment on Hep 3B2 [2], 95.08%. The results for the IC50 in the experiment with HepG2 [1] and in the experiment on Hep 3B2 [2] were 58.6 µM and 69.9 µM, respectively.
